Results taken from patent US10576144B2, “Amino acid and peptide conjugates and conjugation process” (AUCKLAND UNISERVICES LIMITED, priority 2014, dated 2020).
Residues, ends and D or L forms follow the SMILES beside them. *: point of attachment. Ethyl(2-palmitoyloxy) = CCCCCCCCCCCCCCCC(=O)OCC*; Palmitoyl = CCCCCCCCCCCCCCCC(=O)*

How the values were obtained:
CD8+ T cell clone 1C11 = assay: CD8+ T cell clone activation assay, NY-ESO-1 118-143 constructs, autologous LCL as APC; format: cell-based, human
Procedure: Human CD4+ and CD8+ T cell clones were maintained at a concentration of 1-3×10^6/ml in RPMI 1640 supplemented with Glutamax, Penicillin/Streptomycin and 5% v/v human serum (“RS5”, all reagents from Life Technologie). Media was refreshed 50% v/v twice weekly. RS5 for CD4+ T cell clones was supplemented with IL-7 and IL-21, and RS5 for CD8+ T cell clones was supplemented with IL-7+IL-15 (all cytokines from PeproTech, used at a final concentration of 5 ng/ml).
Epstein-Barr Virus (“EBV”)-producing B95-8 MM cells were grown in RPMI 1640 supplemented with Glutamax, Penicillin/Streptomycin and 10% v/v fetal bovine serum (“RF10”, all reagents from Invitrogen) in T75 flasks (BD Biosciences). EBV-containing medium was collected and centrifuged to pellet non-adherent cells, and the EBV-containing supernatant then filter-sterilised (0.22 μm). 10×10^6 donor Peripheral Blood Mononuclear Cells (“PBMC”) were suspended in 1.5 ml RF10 in aT25 flask (BD Biosciences). 2.5 ml B95-8 cell culture supernatant was added and cells incubated for 2 hours. 1 ml fresh RF10 containing 5% v/v Phytohemaglutanin (“PHA”, Gibco) was then added (1% v/v final concentration). Flasks were monitored for outgrowth of B cell LCL, typically over 4-6 weeks, with transfer to a T75 flask (BD Biosciences) when required. LCL lines were cryopreserved and working stocks maintained in RF10 at 0.5-1.5×10^6/ml.
Donor LCL or MoDC (also referred to herein as antigen presenting cells or “APC”) were incubated for 16 h in RF10+ peptide/construct at desired concentration. In samples where Pam3Cys (“P3C”) and peptide moieties were both present but unconjugated, LCL were pre-treated with P3C for 30 minutes, and media then refreshed with RF10 containing both P3C and peptide. Untreated APC were incubated in RF10 only. APC/construct incubation was performed in 96 well plates (U-bottom, BD Biosciences) or in 48wp (flat bottom, BD Biosciences) depending of the nature of the assay and the numbers of APC required per treatment. Following incubation, APC were washed with RPMI 1640 4 times, to remove unbound construct/P3C. […]

CD4+ T cell clone 1D6 = assay: CD4+ T cell clone activation assay, NY-ESO-1 118-143 constructs, autologous LCL as APC; format: cell-based, human; conditions: LCL pulsed with construct; 147 tested +/−P3C; 116 and 115 titratable (FIG. 13)
Procedure: Epstein-Barr Virus (“EBV”)-producing B95-8 MM cells were grown in RPMI 1640 supplemented with Glutamax, Penicillin/Streptomycin and 10% v/v fetal bovine serum (“RF10”, all reagents from Invitrogen) in T75 flasks (BD Biosciences). EBV-containing medium was collected and centrifuged to pellet non-adherent cells, and the EBV-containing supernatant then filter-sterilised (0.22 μm). 10×10^6 donor Peripheral Blood Mononuclear Cells (“PBMC”) were suspended in 1.5 ml RF10 in aT25 flask (BD Biosciences). […] Flasks were monitored for outgrowth of B cell LCL, typically over 4-6 weeks, with transfer to a T75 flask (BD Biosciences) when required. […]
Data acquisition was performed using a BD FACSAria II with FACSDiva software, and data analysis was performed using FlowJo software (Treestar). Data were presented as the median fluorescence intensity (MFI)+SD of CD25 and CD134 expression on live clonal cells. […]

human monocytes = assay: Activation of human monocytes in whole blood (CD80 up-regulation, flow cytometry); format: cell-based
Procedure: 100 μl of heparinised whole blood (WB) was incubated with 100 nM, 1 μM and 10 μM of each compound, in duplicate, and incubated overnight at 37° C. in a 5% CO2 humidified incubator. […] EMC Microcollections) was used as a positive control. To detect activation of monocytes, WB samples were stained with anti-CD14-FITC, anti-HLA-DR-Alexa700, anti-CD80-PE-Cy7, anti-CD40-PE, anti-CD86-APC, anti-CD16-APC-Cy7 (all from Biolegend) for 20 mins at RT, protected from light. Following incubation, 2 ml of BD FACS lyse (BD Biosciences) was added, incubated for 15 mins at RT, then washed twice with ice cold wash buffer (PBS, 1% Human Serum). Data acquisition was performed on a BD FACS Aria II (Becton Dickinson) and analysed using FlowJo software version 7.6.5 (TreeStar). CD80 receptor expression on monocytes was detected by gating on CD14+ HLADR+ cells.

Molecule: 147 (VPGVLLKEFTVSGNILTIRLTAADHR; C-terminal acid) [compound 147]
- T cell activation (CD8+ T cell clone 1C11; 100 nM): No or negligible T cell activation
- T cell activation (CD8+ T cell clone 1C11; 1 μM, with exogenous P3C): 75%
- T cell activation (CD8+ T cell clone 1C11; 1 μM, without exogenous P3C): 60%
- response of clone 1D6 (CD4+ T cell clone 1D6): does not respond

Molecule: CCCCCCCCCCCCCCCC(=O)SC[C@H](N)C(=O)N[C@@H](CO)C(=O)N[C@@H](CCCCN)C(=O)N[C@@H](CCCCN)C(=O)N[C@@H](CCCCN)C(=O)N[C@@H](CCCCN)C(N)=O [compound 20] (H-C(Palmitoyl)SKKKK-NH2)
- potency of CD80 up-regulation compared to 22 and 26 (human monocytes; in three donors): lower potency than 22 and 26

Molecule: CCCCCCCCCCCCCCCC(=O)OCCSC[C@H](NC(C)=O)C(=O)N[C@@H](CO)C(=O)N[C@@H](CCCCN)C(=O)N[C@@H](CCCCN)C(=O)N[C@@H](CCCCN)C(=O)N[C@@H](CCCCN)C(N)=O [compound 22] (Ac-C(Ethyl(2-palmitoyloxy))SKKKK-NH2)
- potency of CD80 up-regulation compared to Pam3CSK4 (human monocytes; 10 μM dose, in most donors): equivalent potency to Pam3CSK4
- up-regulation of expression of CD80 on monocytes (human monocytes; all doses tested (100 nM, 1 μM, 10 μM), whole blood of five donors, overnight): strongly upregulated expression of CD80
